Assay results as given in patent US20240025857A1, “NEW CATECHOLAMINE PRODRUGS FOR USE IN THE TREATMENT OF PARKINSON'S DISEASE” (H. Lundbeck A/S, priority 2020, published 2024).
In brackets after ≈: the same amount, converted by molar mass. Structures can show the parent of a compound that is named as a salt.

Legend:
[1] = PK experiments in rats: plasma compound (I) after oral dosing of prodrug; details: for conversion to compound (I) in vivo: oral dosing, rats, Example 2
Procedure: (§1) The tubes were inverted gently 6-8 times to ensure thorough mixing and then placed in wet ice. The collecting tube was placed in wet ice for up to 30 minutes until centrifugation (3000 G for 10 minutes at 4° C.). Once removed from the wet ice the centrifugation was initiated immediately. Immediately after end of centrifugation the samples were returned to wet ice. Two sub-samples of 130 microL plasma were transferred to each of two appropriately labelled cryo tubes containing 6.5 microL pre-cooled formic acid (20% in water v/v) The tube lid was immediately replaced, and the plasma solution was thoroughly mixed by inverting gently 6-8 times. The plasma samples were placed on water-ice as far as possible and stored frozen at nominally −70° C. within 60 minutes after sampling.
(§2) For experiments relating to compounds (II) and (III), the above protocol was used, with the exception that K3EDTA tubes were prepared with stabilizing aqueous solution consisting of 80 microL 100 mg/mL ascorbic acid and 40 microL inhibitor solution containing 100 mg/mL citric acid, 21 mg/mL D-saccharic acid 1,4 lactone and 29 mg/mL tris-(2-carboxyethyl)phosphine (TCEP).
(§3) Plasma samples were analyzed by solid phase extraction or direct protein precipitation followed by UPLC-MS/MS. MS detection using electrospray in the positive ion mode with monitoring of specific mass-to-charge transitions for compound (I) using internal standards for correcting the response. The concentration-time data was analyzed, using standard software using appropriate noncompartmental techniques to obtain estimates of the derived PK parameters.
(§4) Han Wistar rats were supplied by Charles River Laboratories, Sulzfeld, Germany. An artificial, automatically controlled, light and dark cycle of 12 hours was maintained. The rats received a standard laboratory diet from Brogaarden (Altromin 1324 pellets). The rats had unrestricted access to the diet.
(§5) Han Wistar rats were supplied by Charles River Laboratories, UK. An artificial, automatically controlled, light and dark cycle of 12 hours was maintained. The rats received a standard laboratory diet (Teklad 2014C Diet). The rats had unrestricted access to the diet.

[2] = in man after oral dosing; extensive hepatic first-pass metabolism; cited from earlier work
[3] = format: in vitro ADME, Wistar Han rats; details: 1 μM, 4 mg/mL protein, 37° C., 0-60 minutes; FIG. 4
Procedure: The human liver S9 (pool from 50 donors) and the rat liver S9 (from Wistar Han rats, pool of 240) fractions were purchased from SekisuiXenoTech, USA. The protein concentration in the incubation was 4 mg/mL. The incubations were performed in 96-well plates at 37° C. using an automated Hamilton liquid handling system with a total incubation volume of 150 microliter per well. The compounds were each incubated in triplicates in three wells per time point. The liver S9 suspensions were pre-incubated at 37° C. and the reactions started by addition of stock solutions of the test compounds to the incubation wells. The test compounds were dissolved in dimethyl sulfoxide (DMSO) and further diluted in water before spiking the stock solution into the incubation wells. The final DMSO concentration in the incubations was 0.1%. The test compounds were incubated with liver S9 fractions for 0, 5, 10, 15, 30, 45 and 60 minutes. The incubations were terminated by transferring 100 microliter of the incubation samples to a 96-well plate containing 100 microliter of cold (approximately +4° C.) stop reagent containing 2% formic acid, 20 mg/mL ascorbic acid, 10 mg/mL citric acid and 3 mg/mL TCEP (tris(2-carboxyethyl)phosphine). After mixing, the samples were transferred to Nunc 1.0 mL cryo tubes and immediately frozen at −80° C. until analysis. Concentrations of compound (I) were determined after solid-phase extraction of the samples followed by LC-MS/MS analysis. The increase in concentration of compound (I) at the different time points was calculated by subtracting the concentration of compound (I) in the sample taken at time 0 from the concentrations of compound (I) in samples taken at the different time points.
Mass spectrometer (LC-MS/MS) Waters Acquity-Waters Xevo TQ-S. Analytical column Acquity BEH C18 50×2.1 mm, 1.7 micrometer. Mobile phase A: 0.2% formic acid in 20 mM NH4-Formate. Mobile phase B: 0.2% formic acid in acetonitrile. Gradient run from 5% B to 95% B in 3.5 minutes. Flow rate 0.6 mL/min. […]

[4] = Conversion to compound (I) in human liver S9; format: in vitro ADME; details: 1 μM, 4 mg/mL protein, 37° C., 0-60 minutes; compared to (Id-iia) and (Id-iib); FIG. 3
Procedure: The compounds (II), (III), (Id-iia), and (Id-iib) were incubated separately at 1 μM with rat and human liver S9 fraction suspended in 50 mM phosphate buffer at pH 7.4 with 5 mM MgCl2, 200 U/mL superoxide dismutase and 1 mM ascorbic acid. The human liver S9 (pool from 50 donors) and the rat liver S9 (from Wistar Han rats, pool of 240) fractions were purchased from SekisuiXenoTech, USA. The protein concentration in the incubation was 4 mg/mL. The incubations were performed in 96-well plates at 37° C. using an automated Hamilton liquid handling system with a total incubation volume of 150 microliter per well. The compounds were each incubated in triplicates in three wells per time point. The liver S9 suspensions were pre-incubated at 37° C. and the reactions started by addition of stock solutions of the test compounds to the incubation wells. The test compounds were dissolved in dimethyl sulfoxide (DMSO) and further diluted in water before spiking the stock solution into the incubation wells. […] Concentrations of compound (I) were determined after solid-phase extraction of the samples followed by LC-MS/MS analysis. The increase in concentration of compound (I) at the different time points was calculated by subtracting the concentration of compound (I) in the sample taken at time 0 from the concentrations of compound (I) in samples taken at the different time points. […]

physchem = format: physicochemical; details: aqueous buffer, thermodynamic from solid; 25 mM phosphate buffer pH 6, 24 hours rotation, saturated solution; read-out: Measured solubility at pH 6
Procedure: For compound (III), a sample was prepared with excess compound (III) to establish a saturated solution. 4.2 mg of compound (III) was transferred to a vial and 0.5 mL buffer (25 mM phosphate buffer, NaH2PO4/Na2HPO4, pH 6) was added. The sample was mixed by rotation for 24 hours. pH of the sample was measured at t=0 (prior to rotation) and at t=24 h (after 24 h of rotation). Subsequently, some of the sample was filtered with 0.22 micrometer polyvinylidene difluoride filter, first few drops discarded, and content of dissolved compound (III) was quantified by reverse phased HPLC (C18, 3.5 micrometer, 4.6×150 mm column) with eluent 20 mM ammonium buffer pH 2.4 with methanol, 80:20.
The remaining undissolved material was extracted, and air dried for approximately 20 minutes on a metal plate prior to analysis by X-ray powder diffractogram (XRPD). XRPD diffractograms were obtained on a PANalytical X'Pert PRO X-Ray Diffractometer using CuKa1 radiation (λ=1.5406 Å). The samples were measured in reflection mode in the 2θ-range 3-39.9° using an X'celerator detector.

[5] = male, Han Wistar, rat, in vivo, po
Procedure: as §1, §2, §3, §4, §5

| Compound | conversion to compound (I) in rat liver S9 [3] | conversion to compound (I) in vivo [1] | conversion to compound (I) in human liver S9 fraction [4] | solubility at 24 h (physchem) [µg/mL] | also measured |
| --- | --- | --- | --- | --- | --- |
| CCCN1CCC[C@@H]2Cc3c(ccc(OC(=O)C(C)(C)C)c3OC(=O)C(C)(C)C)C[C@H]21 [(Ic)] |  |  |  |  | plasma concentrations of compound (I) ([1]; oral administration of the prodrug, Wistar rats, in words): extremely low |
| CCCc1cc2c(s1)CN[C@@H]1CCc3cc(OC(C)=O)c(OC(C)=O)cc3[C@@H]21 [Adrogolide] |  |  |  |  | oral bioavailability [2]: ~4% |
| CCCN1CCC[C@@H]2Cc3c(ccc(OS(N)(=O)=O)c3O)C[C@H]21 [Compound (II), (4aR,10aR)-6-hydroxy-1-propyl-1,2,3,4,4a,5,10,10a-octahydrobenzo[g]quinolin-7-yl sulfamate] | is converted to compound (I) | converted to compound (I) in vivo | increased conversion to compound (I) |  |  |
| CCCN1CCC[C@@H]2Cc3c(ccc(O)c3OS(N)(=O)=O)C[C@H]21 [Compound (III), (4aR,10aR)-7-hydroxy-1-propyl-1,2,3,4,4a,5,10,10a-octahydrobenzo[g]quinolin-6-yl sulfamate] | is converted to compound (I) | converted to compound (I) in vivo | increased conversion to compound (I) | 890 (≈ 2610 µM) |  |
| CCCN1CCC[C@@H]2CC3=C(CCCC3=O)C[C@H]21 [Compound (Ia)] |  |  |  |  | AUC0-24 [5]: 13.6 ng·h/mL; Cmax [5]: 3.16 ng/mL; Tmax ([5]; 0.3 mg/kg): 1.0 h; Exposure at 24 h ([5]; 24 h): 48 ± 26 pg/mL |
| CCCN1CCC[C@@H]2Cc3c(ccc(OS(=O)(=O)O)c3O)C[C@H]21 [Compound (Id-iib), (4aR,10aR)-6-hydroxy-1-propyl-1,2,3,4,4a,5,10,10a-octahydrobenzo[g]quinolin-7-yl hydrogen sulfate] | is converted to compound (I) |  |  | 37 |  |
